In patent US8222274B2, “Pyrrole derivative or salt thereof” (Astellas Pharma Inc., priority 2006, dated 2012):

How the values were obtained:
[1] = molecular target: T1, human 5-HT2B receptor (Homo sapiens, UniProt P41595); test: 5-HT2B receptor binding test; conditions: human 5-HT2B receptor expressing HEK293-EBNA cell membrane, [3H] Mesulergine
T1 construct: expressed in transfected cells; host or cells: HEK293-EBNA cells (membrane preparation)
Experimental: Test Method (1) 5-HT2B Receptor Binding Test
(i) Preparation of Membrane Sample
(§1) Cultured human 5-HT2B receptor expressing HEK293-EBNA cells were washed with a phosphate buffer (PBS)(−). The cells were peeled off with a scraper in the presence of PBS(−), and the cells were recovered by centrifugation (1,000 rpm, 10 minutes, 4° C.). In the presence of 5 mM tris-hydrochloric acid (Tris-HCl) (pH 7.4) buffer, homogenized using a homogenizer (registered trademark: Polytron (PTA 10-TS)), and centrifugation-treated (40,000×g, 10 minutes, 4° C.). In the presence of 50 mM Tris-HCl (pH 7.4) buffer, suspended using Glass-Teflon (registered trademark) homogenizer. By carrying out centrifugation treatment (40,000×g, 10 minutes, 4° C.), suspended in 50 mM Tris-HCl (pH 7.4) and stored at −80° C.
(§2) (ii) Receptor Binding Test
A total volume of 500 μl containing 50 mM Tris-HCl, a 4 mM CaCl2 (pH 7.4) buffer, a human 5-HT2B receptor expressing HEK293-EBNA cell membrane preparation and a radio-ligand [^3H] Mesulergine (3.1 TBq/mmol) was incubated at 25° C. for 1 hour. The compound was dissolved in 100% dimethyl sulfoxide (DMSO) and diluted to respective concentrations. Binding quantity in the presence of 1 μM ritanserin was regarded as the nonspecific binding, and a result of subtracting the nonspecific binding quantity from the total binding quantity was regarded as the specific binding quantity. After adding 4 ml of 50 mM Tris-HCl buffer (pH 7.4) and filtering under a reduced pressure using a GF/B glass filter, the filter was washed (4 ml×3) with the same buffer. By soaking the glass filter in 5 ml of a liquid scintillator (trade name: Aquasol-2), the radioactivity quantity was measured using a liquid scintillation counter. […] Ex represents example compound number which is described later.

[2] = molecular target: T2, human 5-HT7 receptor (Homo sapiens, UniProt P34969); test: 5-HT7 receptor binding test; conditions: human 5-HT7 receptor expressing CHO cell membrane, [3H] 5-HT
T2 construct: expressed in transfected cells; host or cells: CHO cells (membrane preparation)
Experimental: Test Method (2) 5-HT7 Receptor Binding Test (i) Preparation of Membrane Sample
as §1, with “5-HT7” for “5-HT2B”, “CHO” for “HEK293-EBNA”, “PBS(−).” for “a phosphate buffer (PBS)(−).”, “Tris-HCl” for “tris-hydrochloric acid (Tris-HCl)”
as §2
A total volume of 500 μl containing 50 mM Tris-HCl, a 4 mM CaCl2 (pH 7.4) buffer, a human 5-HT7 receptor expressing CHO cell membrane preparation and a radio-ligand [^3H] 5-HT (3.40 TBq/mmol) was incubated at 25° C. for 1 hour. The compound was dissolved in 100% DMSO and diluted to respective concentrations. Binding quantity in the presence of 10 μM metergoline was regarded as the nonspecific binding, and a result of subtracting the nonspecific binding quantity from the total binding quantity was regarded as the specific binding quantity. After adding 4 ml of 50 mM Tris-HCl buffer (pH 7.4) and filtering under a reduced pressure using a GF/B glass filter, the filter was washed (4 ml×3) with the same buffer. By soaking the glass filter in 5 ml of a liquid scintillator (trade name: Aquasol-2), the radioactivity quantity was measured using a liquid scintillation counter.

[3] = system: male Wistar rats; test: Defecation suppressing effect at the time of restraint stress loading (rat restraint stress defecation model); type: in vivo; conditions: for suppressing action on defecation / defecation-suppressing action: rat restraint stress, faces excreted during 1 hour after stress loading; for suppressing action on defecation: starting from a dose of 1 mg/kg (p.o.); for number of faces excreted, difference in comparison with the non-administration group: rat restraint stress, 1, 3 or 10 mg/kg administration group, N=10; for defecation-suppressing action: even at a dose of 10 mg/kg p.o.
Experimental: Test method (4) Defecation Suppressing Effect at the Time of Restraint Stress Loading
The IBS-treating effect of the compound (I) of the present invention was evaluated using a test method in which the amount of excreted faces is measured by loading a restraint stress on rats (see “The Journal of Pharmacology Experimental Therapeutics”, (USA), 1992, vol. 261, p. 297-303).
The agent to be tested was administered to male Wistar rats (body weight 250 to 320 g, 10 animals for each group), and a restraint stress was loaded 30 minutes thereafter. A restraint cage (trade name: KN-468, 265 mm in width×95 mm in length×200 mm in height, Natsume Seisakusho, Tokyo) was used for the restraint stress loading, and the number of faces excreted during 1 hour after the stress loading was counted.

[4] = system: 5-HT2B receptor; conditions: versus 5-HT1A, 5-HT1B, 5-HT2A, 5-HT2C, 5-HT3, 5-HT6, 5-HT7, α1, M1, D2 and the like; cited from earlier work

T1 sequence (P41595 whole entry): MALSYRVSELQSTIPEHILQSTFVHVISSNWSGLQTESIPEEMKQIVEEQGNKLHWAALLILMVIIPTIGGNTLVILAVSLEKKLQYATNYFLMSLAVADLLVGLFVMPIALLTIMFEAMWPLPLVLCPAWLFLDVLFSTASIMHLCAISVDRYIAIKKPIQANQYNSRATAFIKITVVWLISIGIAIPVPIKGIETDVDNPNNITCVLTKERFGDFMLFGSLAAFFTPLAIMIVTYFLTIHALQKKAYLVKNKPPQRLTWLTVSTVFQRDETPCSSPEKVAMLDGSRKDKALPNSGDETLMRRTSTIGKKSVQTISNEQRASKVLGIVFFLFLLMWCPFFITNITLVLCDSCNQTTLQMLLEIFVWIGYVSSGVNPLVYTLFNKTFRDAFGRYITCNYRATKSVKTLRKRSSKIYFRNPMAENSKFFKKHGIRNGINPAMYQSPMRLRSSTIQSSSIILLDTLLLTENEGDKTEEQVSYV
T2 sequence (P34969 whole entry): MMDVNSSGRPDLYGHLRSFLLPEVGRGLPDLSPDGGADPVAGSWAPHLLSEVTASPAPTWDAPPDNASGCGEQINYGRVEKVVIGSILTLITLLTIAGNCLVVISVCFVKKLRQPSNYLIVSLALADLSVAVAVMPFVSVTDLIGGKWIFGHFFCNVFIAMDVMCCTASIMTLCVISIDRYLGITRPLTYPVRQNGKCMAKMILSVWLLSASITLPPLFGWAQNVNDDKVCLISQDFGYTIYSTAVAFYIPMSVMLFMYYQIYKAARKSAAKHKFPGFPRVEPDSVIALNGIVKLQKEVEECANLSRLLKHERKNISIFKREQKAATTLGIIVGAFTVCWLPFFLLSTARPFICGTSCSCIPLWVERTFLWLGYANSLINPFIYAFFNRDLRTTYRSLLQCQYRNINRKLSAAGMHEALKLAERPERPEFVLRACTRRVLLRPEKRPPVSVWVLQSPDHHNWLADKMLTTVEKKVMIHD

With Cc1c(C(=O)NCCN(C)C)cc(C(C)(C)C)n1CCc1ccc(F)cc1 [Example 2, 5-tert-butyl-N-[2-(dimethylamino)ethyl]-1-[2-(4-fluorophenyl)ethyl]-2-methyl-1H-pyrrole-3-carboxamide] the Ki [1] was 7.7 nM and the Ki [2] was 1.1 nM.
Cc1c(C(=O)N=C(N)N)cc(C2CCCC2)n1CCc1ccc(F)cc1 [Example 52] gave a Ki [1] of 0.48 nM and a Ki [2] of 1.3 nM.
In the case of Cc1c(C(=O)N=C(N)N)cc(-c2ccccc2)n1Cc1ccco1 [Example 98], the Ki [1] is reported as 9.6 nM and the Ki [2] is reported as 28 nM.
Work on Cc1c(C(=O)N=C(N)N)c(C)n(CCc2ccc(F)cc2)c1C(C)(C)C [Example 142] yielded a Ki [1] of 3.7 nM and a Ki [2] of 1.5 nM.
In the case of Cc1c(C(=O)N[C@H]2CCN(C)C2)cc(C(C)(C)C)n1CCc1ccc(F)cc1 [Example 153], the “suppressing action on defecation” value [3] is reported as “significant suppressing action”, the Ki [1] is reported as 12 nM and the Ki [2] is reported as 6.5 nM.
In the case of Cc1c(C(=O)N[C@@H]2CCN(C)C2)cc(C(C)(C)C)n1CCc1ccc(F)cc1 [Example 154], the “suppressing action on defecation” value [3] is reported as “significant suppressing action”, the Ki [1] is reported as 2.1 nM and the Ki [2] is reported as 14 nM.
In the case of Cc1c(C(=O)NC[C@@H]2CCCN2C)cc(C(C)(C)C)n1CCc1ccc(F)cc1 [Example 161], the “suppressing action on defecation” value [3] is reported as “significant suppressing action”, the Ki [1] is reported as 8.4 nM and the Ki [2] is reported as 5.3 nM.
For Cc1c(C(=O)NC[C@H]2CCCN2C)cc(C(C)(C)C)n1CCc1ccc(F)cc1 [Example 163], the Ki [1] was 7.1 nM and the Ki [2] was 4.1 nM.
In the case of Cc1c(C(=O)NCCN(C)C)cc(-c2ccsc2)n1CCc1ccc(F)cc1 [Example 187], the Ki [1] is reported as 0.68 nM and the Ki [2] is reported as 11 nM.
Cc1c(C(=O)NCCN(C)C)cc(Cc2ccc(F)cc2)n1CCc1ccc(F)cc1 [Example 196] gave a Ki [1] of 7.2 nM and a Ki [2] of 1.8 nM.
For Cc1c(C(=O)NCCN(C)C)cc(C(C)(C)C)n1OCc1ccc(F)cc1 [Example 211], the Ki [1] was 7.5 nM and the Ki [2] was 3.1 nM.
With Cc1c(C(=O)N[C@@H]2CCN(C)C2)c(C)n(CCc2ccc(F)cc2)c1C(C)(C)C [Example 217] the Ki [1] was 2.3 nM and the Ki [2] was 8.2 nM.
With Cc1c(C(=O)N[C@H]2CCN(C)C2)c(C)n(CCc2ccc(F)cc2)c1C(C)(C)C [Example 218] the Ki [1] was 9.2 nM and the Ki [2] was 4.3 nM.
In the case of CC(C)c1cc(-c2ccc(F)c3ccccc23)nc(N)n1 [RS-127445, 2-amino-4-(4-fluoronaphth-1-yl)-6-isopropylpyrimidine], the “number of faces excreted, difference in comparison with the non-administration group” value [3] is given as “Significant difference was not found”, the defecation-suppressing action [3] is given as “did not show defecation-suppressing action” and the “5-HT2B receptor-selective by a factor” value [4] is given as no less than 1000 times.
For CC1CCN(CC[C@H]2CCCN2S(=O)(=O)c2cccc(O)c2)CC1 [SB-269970, (R)-3-(2-(2-(4-methylpiperidin-1-yl)ethyl)pyrrolidine-1-sulfonyl)phenol], the “number of faces excreted, difference in comparison with the non-administration group” value [3] was “Significant difference was not found” and the defecation-suppressing action [3] was “did not show the defecation-suppressing action”.
